Legend:
Format in all cases: in vivo
Alopecurus myosuroides [1] = assay: Pre-emergence herbicidal action, ALOMY; details: for Herbicidal efficacy against ALOMY: Table L
Procedure, shortened: (§1)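 Percent herbicidal activity rated by eye 3 weeks after pre-emergence soil-surface application, compared with untreated pots. Seeds sat under sandy loam; sprays carried 0.2% wetting agent.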

Amaranthus retroflexus [2] = assay: Pre-emergence herbicidal action, AMARE; details: dosage 320 g/ha, scored visually after 3 weeks vs untreated controls
Procedure, shortened: as §1

Avena fatua [3] = assay: Pre-emergence herbicidal action, AVEFA; details: for Herbicidal efficacy against AVEFA: Table L
Procedure, shortened: as §1

Cyperus serotinus = assay: Pre-emergence herbicidal action, CYPES; details: for Herbicidal efficacy against CYPES: Table L
Procedure, shortened: as §1

Matricaria inodora [4] = assay: Pre-emergence herbicidal action, MATIN; details: dosage 320 g/ha, scored visually after 3 weeks vs untreated controls
Procedure, shortened: as §1

Polygonum convolvulus = assay: Pre-emergence herbicidal action, POLCO; details: Table L
Procedure, shortened: as §1

Setaria viridis [5] = assay: Pre-emergence herbicidal action, SETVI; details: for Herbicidal efficacy against SETVI: Table L
Procedure, shortened: as §1

Stellaria media [6] = assay: Pre-emergence herbicidal action, STEME; details: dosage 320 g/ha, scored visually after 3 weeks vs untreated controls
Procedure, shortened: as §1

Viola tricolor [7] = assay: Pre-emergence herbicidal action, VIOTR; details: for Herbicidal efficacy against VIOTR: Table L; for herbicidal activity VIOTR: scored visually after 3 weeks vs untreated controls
Procedure, shortened: as §1

Abutilon theophrasti [8] = assay: Post-emergence herbicidal action, ABUTH; details: 80 g/ha, Table D
Procedure, shortened: (§2)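 Herbicidal effect is rated visually as percent versus untreated plants (100% = dead, 0% = like control) about 3 weeks after spraying. Plants were sown in sandy loam in the greenhouse and sprayed on green parts at the one-leaf stage, 2 to 3 weeks post-sowing.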

Alopecurus myosuroides [9] = assay: Post-emergence herbicidal action, ALOMY; details: for herbicidal activity ALOMY: 80 g/ha, Table C; for Herbicidal efficacy against ALOMY: Table M
Procedure, shortened: as §2

Amaranthus retroflexus [10] = assay: Post-emergence herbicidal action, AMARE; details: 80 g/ha, Table D
Procedure, shortened: as §2

Avena fatua [11] = assay: Post-emergence herbicidal action, AVEFA; details: for Herbicidal efficacy against AVEFA: Table M
Procedure, shortened: as §2

Matricaria inodora [12] = assay: Post-emergence herbicidal action, MATIN; details: Table M
Description: (§3) Seeds of monocotyledonous and dicotyledonous weed and crop plants are laid out in sandy loam soil in wood-fiber pots, covered with soil and cultivated in a greenhouse under good growth conditions. 2 to 3 weeks after sowing, the test plants are treated at the one-leaf stage. The compounds of the invention, formulated in the form of wettable powders (WP) or as emulsion concentrates (EC), are then sprayed onto the green parts of the plants in the form of an aqueous suspension or emulsion at a water application rate equating to […], with addition of 0.2% wetting agent. After the test plants have been left to stand in the greenhouse under optimal growth conditions for about 3 weeks, the action of the preparations is assessed visually in comparison to untreated controls (herbicidal action in percent (%): 100% activity=the plants have died, 0% activity=like control plants). […] At the same time, inventive compounds leave Gramineae crops such as barley, wheat, rye, millet/sorghum, corn or rice virtually undamaged when applied post-emergence, even at high active compound dosages. In addition, some substances are also harmless to dicotyledonous crops such as soya, cotton, oilseed rape, sugar beet or potatoes. Some of the compounds according to the invention have high selectivity and are therefore suitable for controlling unwanted vegetation in agricultural crops by the post-emergence method. The data of Tables C and D below illustrate, in an exemplary manner, the […] herbicidal action of the compounds according to the invention, the herbicidal activity being stated in percent.
(§4) For comparison, the herbicidal activity of numerous compounds according to the invention was tested with the structurally closest compounds known from the documents WO 2011/035874, WO 2012/028579 and WO 2012/126932, by the pre- and post-emergence method.

Pharbitis purpureum = assay: Post-emergence herbicidal action, PHBPU; details: 80 g/ha, Table D
Procedure, shortened: as §2

Setaria viridis [13] = assay: Post-emergence herbicidal action, SETVI; details: for herbicidal activity SETVI: 80 g/ha, Table C; for Herbicidal efficacy against SETVI: Table M
Procedure, shortened: as §2

Stellaria media [14] = assay: Post-emergence herbicidal action, STEME; details: 80 g/ha, Table D
Procedure, shortened: as §2

Veronica persica = assay: Post-emergence herbicidal action, VERPE; details: Table M
Description: as §3, §4

Viola tricolor [15] = assay: Post-emergence herbicidal action, VIOTR; details: for herbicidal activity VIOTR: 80 g/ha, Table D; for Herbicidal efficacy against VIOTR: Table M
Procedure, shortened: as §2

ECHCG = assay: Post-emergence herbicidal action, ECHCG; details: 80 g/ha, Table C
Procedure, shortened: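 Weed and crop plants grown in sandy loam in the greenhouse, treated at the one-leaf stage 2–3 weeks after sowing. Damage scored visually after about 3 weeks vs untreated controls (0% = control, 100% = dead).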

LOLMU = assay: Pre-emergence herbicidal action, LOLMU; details: Table L
Abutilon theophrasti [16] = assay: Pre-emergence herbicidal action, ABUTH; details: dosage 320 g/ha, scored visually after 3 weeks vs untreated controls
Procedure, shortened: as §1

[17] = dosage 320 g/ha, scored visually after 3 weeks vs untreated controls

Structure (SMILES): CSc1c(C(F)F)ccc(C(=O)Nc2nnc(C)o2)c1C [Example 7-1]
- Herbicidal efficacy against ALOMY (Alopecurus myosuroides [1]; dosage 80 g/ha): 60
- Herbicidal efficacy against ALOMY (Alopecurus myosuroides [1]; dosage 320 g/ha): 70
- herbicidal activity AMARE (Amaranthus retroflexus [2]): 100%
- Herbicidal efficacy against AVEFA (Avena fatua [3]; dosage 80 g/ha): 20
- Herbicidal efficacy against AVEFA (Avena fatua [3]; dosage 320 g/ha): 70
- Herbicidal efficacy against CYPES (Cyperus serotinus; dosage 80 g/ha): 60
- Herbicidal efficacy against CYPES (Cyperus serotinus; dosage 320 g/ha): 70
- herbicidal activity MATIN (Matricaria inodora [4]): 80%
- Herbicidal efficacy against POLCO (Polygonum convolvulus; dosage 80 g/ha): 30
- Herbicidal efficacy against POLCO (Polygonum convolvulus; dosage 320 g/ha): 40
- Herbicidal efficacy against SETVI (Setaria viridis [5]; dosage 80 g/ha): 70
- Herbicidal efficacy against SETVI (Setaria viridis [5]; dosage 320 g/ha): 100
- Herbicidal activity STEME (Stellaria media [6]): 80%
- Herbicidal efficacy against VIOTR (Viola tricolor [7]; dosage 80 g/ha): 90
- Herbicidal efficacy against VIOTR (Viola tricolor [7]; dosage 320 g/ha): 100
- herbicidal activity VIOTR (Viola tricolor [7]; dosage 320 g/ha): 100%
- herbicidal activity ABUTH (Abutilon theophrasti [8]): 100%
- herbicidal activity ALOMY (Alopecurus myosuroides [9]): 90%
- Herbicidal efficacy against ALOMY (Alopecurus myosuroides [9]; dosage 20 g/ha): 70
- herbicidal activity AMARE (Amaranthus retroflexus [10]): 100%
- Herbicidal efficacy against AVEFA (Avena fatua [11]; dosage 20 g/ha): 40
- Herbicidal efficacy against MATIN (Matricaria inodora [12]; dosage 20 g/ha): 40
- Herbicidal activity PHBPU (Pharbitis purpureum): 90%
- herbicidal activity SETVI (Setaria viridis [13]): 100%
- Herbicidal efficacy against SETVI (Setaria viridis [13]; dosage 20 g/ha): 100
- Herbicidal activity STEME (Stellaria media [14]): 90%
- Herbicidal efficacy against VERPE (Veronica persica; dosage 20 g/ha): 90
- herbicidal activity VIOTR (Viola tricolor [15]): 100%
- Herbicidal efficacy against VIOTR (Viola tricolor [15]; dosage 20 g/ha): 100
- Herbicidal activity ECHCG (ECHCG): 100%
- Herbicidal efficacy against LOLMU (LOLMU; dosage 80 g/ha): 0
- Herbicidal efficacy against LOLMU (LOLMU; dosage 320 g/ha): 30

Structure (SMILES): Cc1nnc(NC(=O)c2ccc(C(F)F)c(S(C)(=O)=O)c2C)o1 [Example 7-3]
- herbicidal activity ABUTH (Abutilon theophrasti [16]): 100%
- Herbicidal efficacy against ALOMY (Alopecurus myosuroides [1]; dosage 80 g/ha): 90
- Herbicidal efficacy against ALOMY (Alopecurus myosuroides [1]; dosage 320 g/ha): 100
- herbicidal activity ALOMY (Alopecurus myosuroides [1]; [17]): 100%
- herbicidal activity AMARE (Amaranthus retroflexus [2]): 100%
- Herbicidal efficacy against AVEFA (Avena fatua [3]; dosage 80 g/ha): 90
- Herbicidal efficacy against AVEFA (Avena fatua [3]; dosage 320 g/ha): 100
- herbicidal activity AVEFA (Avena fatua [3]; [17]): 100%
- Herbicidal efficacy against CYPES (Cyperus serotinus; dosage 80 g/ha): 100
- Herbicidal efficacy against CYPES (Cyperus serotinus; dosage 320 g/ha): 100
- herbicidal activity CYPES (Cyperus serotinus; [17]): 100%
- herbicidal activity MATIN (Matricaria inodora [4]): 100%
- Herbicidal efficacy against POLCO (Polygonum convolvulus; dosage 80 g/ha): 40
- Herbicidal efficacy against POLCO (Polygonum convolvulus; dosage 320 g/ha): 70
- Herbicidal efficacy against SETVI (Setaria viridis [5]; dosage 80 g/ha): 100
- Herbicidal efficacy against SETVI (Setaria viridis [5]; dosage 320 g/ha): 100
- herbicidal activity SETVI (Setaria viridis [5]; [17]): 100%
- Herbicidal activity STEME (Stellaria media [6]): 100%
- Herbicidal efficacy against VIOTR (Viola tricolor [7]; dosage 80 g/ha): 100
- Herbicidal efficacy against VIOTR (Viola tricolor [7]; dosage 320 g/ha): 100
- herbicidal activity VIOTR (Viola tricolor [7]; dosage 320 g/ha): 100%
- herbicidal activity ABUTH (Abutilon theophrasti [8]): 100%
- herbicidal activity ALOMY (Alopecurus myosuroides [9]): 100%
- Herbicidal efficacy against ALOMY (Alopecurus myosuroides [9]; dosage 20 g/ha): 60
- Herbicidal efficacy against ALOMY (Alopecurus myosuroides [9]; dosage 80 g/ha): 100
- herbicidal activity AMARE (Amaranthus retroflexus [10]): 90%
- herbicidal activity AVEFA (Avena fatua [11]; 80 g/ha, Table C): 100%
- Herbicidal efficacy against AVEFA (Avena fatua [11]; dosage 20 g/ha): 90
- Herbicidal efficacy against AVEFA (Avena fatua [11]; dosage 80 g/ha): 100
- Herbicidal efficacy against MATIN (Matricaria inodora [12]; dosage 20 g/ha): 90
- Herbicidal efficacy against MATIN (Matricaria inodora [12]; dosage 80 g/ha): 100
- Herbicidal activity PHBPU (Pharbitis purpureum): 90%
- herbicidal activity SETVI (Setaria viridis [13]): 100%
- Herbicidal efficacy against SETVI (Setaria viridis [13]; dosage 20 g/ha): 90
- Herbicidal efficacy against SETVI (Setaria viridis [13]; dosage 80 g/ha): 100
- Herbicidal activity STEME (Stellaria media [14]): 100%
- Herbicidal efficacy against VERPE (Veronica persica; dosage 20 g/ha): 100
- Herbicidal efficacy against VERPE (Veronica persica; dosage 80 g/ha): 100
- herbicidal activity VIOTR (Viola tricolor [15]): 100%
- Herbicidal efficacy against VIOTR (Viola tricolor [15]; dosage 20 g/ha): 100
- Herbicidal efficacy against VIOTR (Viola tricolor [15]; dosage 80 g/ha): 100
- Herbicidal activity ECHCG (ECHCG): 90%
- Herbicidal efficacy against LOLMU (LOLMU; dosage 80 g/ha): 80
- Herbicidal efficacy against LOLMU (LOLMU; dosage 320 g/ha): 100
